Values quoted from earlier work in patent EP2742940A1, “Salts of aza-bicyclo-di-aryl ethers for adminstration once daily, twice daily or thrice daily” (IP Gesellschaft für Management mbH, priority 2012, dated 2014).
“And” between values parts separate entries of the source, which are not always exact repeats. Identical values can stand only once. Like-named read-outs stand apart in the source and are kept apart here.

Key:
α4β2-nAChR = target: T1, α4β2-nAChR (Homo sapiens, UniProt P17787+P43681)
T1 construct: expressed in transfected cells
T1 sequence (P43681 29-627 limits assumed): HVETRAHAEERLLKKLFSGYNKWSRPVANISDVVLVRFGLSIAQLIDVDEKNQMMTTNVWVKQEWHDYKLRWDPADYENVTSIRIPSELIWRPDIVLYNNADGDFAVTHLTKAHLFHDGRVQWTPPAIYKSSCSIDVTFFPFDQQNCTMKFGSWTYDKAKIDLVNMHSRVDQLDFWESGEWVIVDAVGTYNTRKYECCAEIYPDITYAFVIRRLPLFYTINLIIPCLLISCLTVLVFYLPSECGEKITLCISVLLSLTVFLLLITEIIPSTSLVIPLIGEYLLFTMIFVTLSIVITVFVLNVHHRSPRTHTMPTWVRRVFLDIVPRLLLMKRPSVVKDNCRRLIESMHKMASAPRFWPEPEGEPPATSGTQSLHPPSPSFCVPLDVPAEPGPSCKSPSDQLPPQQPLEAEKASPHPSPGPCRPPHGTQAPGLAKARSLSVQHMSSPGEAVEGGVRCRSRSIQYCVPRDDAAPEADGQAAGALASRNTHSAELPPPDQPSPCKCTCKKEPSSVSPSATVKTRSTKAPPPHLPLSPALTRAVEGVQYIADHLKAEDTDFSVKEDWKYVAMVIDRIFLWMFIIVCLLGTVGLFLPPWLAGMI
T1 sequence (P17787 26-502): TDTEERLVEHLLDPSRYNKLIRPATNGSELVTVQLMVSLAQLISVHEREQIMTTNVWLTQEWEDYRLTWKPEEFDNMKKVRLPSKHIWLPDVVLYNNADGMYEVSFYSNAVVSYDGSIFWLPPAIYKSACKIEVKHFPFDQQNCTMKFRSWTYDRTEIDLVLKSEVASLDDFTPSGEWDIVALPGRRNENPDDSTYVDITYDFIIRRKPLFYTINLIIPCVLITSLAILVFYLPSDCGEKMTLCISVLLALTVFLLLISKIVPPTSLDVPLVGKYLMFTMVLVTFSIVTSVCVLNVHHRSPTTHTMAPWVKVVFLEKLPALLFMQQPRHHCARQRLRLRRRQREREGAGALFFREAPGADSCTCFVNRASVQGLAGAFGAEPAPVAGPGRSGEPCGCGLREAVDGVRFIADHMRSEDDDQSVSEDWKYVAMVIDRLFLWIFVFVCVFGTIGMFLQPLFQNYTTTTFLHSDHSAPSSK

mice = details: mouse, oral, Dose 0.3 mg/kg, familiar partner at 24 h vs time 0
α7-nAChR = target: T2, α7-nAChR (Homo sapiens, UniProt P36544); details: Emax relative to epibatidine response
T2 construct: expressed in transfected cells; host or cells: GH3 cells
T2 sequence (P36544 23-502): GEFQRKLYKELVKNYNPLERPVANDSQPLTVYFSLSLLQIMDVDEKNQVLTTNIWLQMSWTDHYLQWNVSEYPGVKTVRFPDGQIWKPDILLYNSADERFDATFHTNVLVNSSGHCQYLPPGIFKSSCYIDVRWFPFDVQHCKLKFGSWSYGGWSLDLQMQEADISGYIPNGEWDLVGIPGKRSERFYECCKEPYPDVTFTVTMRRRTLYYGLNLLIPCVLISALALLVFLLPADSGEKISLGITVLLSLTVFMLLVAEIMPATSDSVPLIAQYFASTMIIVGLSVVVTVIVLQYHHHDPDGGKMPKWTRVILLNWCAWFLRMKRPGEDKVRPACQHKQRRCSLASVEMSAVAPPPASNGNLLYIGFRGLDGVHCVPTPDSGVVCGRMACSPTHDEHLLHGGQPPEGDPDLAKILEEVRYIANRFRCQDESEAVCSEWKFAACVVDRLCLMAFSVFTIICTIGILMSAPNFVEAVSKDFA

[1] = mice; for Brain (pmoles/g)±SD) / Plasma (pmoles/ml±SD): 30 µmol/kg p.o.
[2] = set-up: Initial water content / Hygroscopy @ 85%RH: unit not given here
[3] = male Wistar rats, oral 10 mg/kg, Mean All (n=8)
[4] = male Wistar rats, oral 10 mg/kg, individual rats 01-08, listed as free base, 10 mg/kg

Cc1ccc(-c2ccc(O[C@H]3CN4CCC3CC4)cn2)cc1 [Compound A, (R)-3-(6-(4-methylphenyl)-pyridin-3-yloxy)-1-aza-bicyclo[2.2.2]octane]
EC50 (α4β2-nAChR): > 100 µM | AUClast [3]: 200 ng·h/mL | AUClast/Dose (h·ng/mL)/(mg/kg) [3]: 20.4 (h·ng/mL)/(mg/kg) | Cmax [3]: 112 ng/mL | Cmax/Dose (ng/mL)/(mg/kg) [3]: 11.3 (ng/mL)/(mg/kg) | Concentration in plasma, Time (h) 0.25 [3]: 100 ng/mL | Concentration in plasma, Time (h) 0.5 [3]: 83.5 ng/mL | Concentration in plasma, Time (h) 1 [3]: 52.7 ng/mL | Concentration in plasma, Time (h) 2 [3]: 31.2 ng/mL | Concentration in plasma, Time (h) 3 [3]: 16.2 ng/mL | Concentration in plasma, Time (h) 4 [3]: 10.3 ng/mL | Concentration in plasma, Time (h) 6 [3]: 437 ng/mL | Concentration in plasma, Time (h) 8 [3]: 354 ng/mL | Concentration in plasma, Time (h) 24 [3]: 0.822 ng/mL | AUClast [4]: 141 ng·h/mL and 123 ng·h/mL and 238 ng·h/mL and 136 ng·h/mL and 214 ng·h/mL and 296 ng·h/mL and 234 ng·h/mL and 236 ng·h/mL | AUClast/Dose (h·ng/mL)/(mg/kg) [4]: 14.0 (h·ng/mL)/(mg/kg) and 12.0 (h·ng/mL)/(mg/kg) and 24.4 (h·ng/mL)/(mg/kg) and 13.5 (h·ng/mL)/(mg/kg) and 21.6 (h·ng/mL)/(mg/kg) and 29.7 (h·ng/mL)/(mg/kg) and 23.4 (h·ng/mL)/(mg/kg) and 24.5 (h·ng/mL)/(mg/kg) | Cmax [4]: 58.8 ng/mL and 89.6 ng/mL and 83.0 ng/mL and 94.8 ng/mL and 119 ng/mL and 188 ng/mL and 117 ng/mL and 145 ng/mL | Cmax/Dose (ng/mL)/(mg/kg) [4]: 5.81 (ng/mL)/(mg/kg) and 8.79 (ng/mL)/(mg/kg) and 8.50 (ng/mL)/(mg/kg) and 9.40 (ng/mL)/(mg/kg) and 12.0 (ng/mL)/(mg/kg) and 18.9 (ng/mL)/(mg/kg) and 11.7 (ng/mL)/(mg/kg) and 15.0 (ng/mL)/(mg/kg) | Concentration in plasma, Time (h) 0.25 [4]: 58.8 ng/mL and 89.68 ng/mL and 3.0 ng/mL and 79.4 ng/mL and 105 ng/mL and 188 ng/mL and 49.0 ng/mL and 145 ng/mL | Concentration in plasma, Time (h) 0.5 [4]: 34.8 ng/mL and 51.2 ng/mL and 64.5 ng/mL and 94.8 ng/mL and 119 ng/mL and 122 ng/mL and 117 ng/mL and 65.0 ng/mL | Concentration in plasma, Time (h) 1 [4]: 20.1 ng/mL and 63.9 ng/mL and 36.0 ng/mL and 65.8 ng/mL and 83.6 ng/mL and 87.0 ng/mL and 33.8 ng/mL | Concentration in plasma, Time (h) 2 [4]: 679 ng/mL and 12.6 ng/mL and 51.7 ng/mL and 16.2 ng/mL and 43.2 ng/mL and 46.9 ng/mL and 42.2 ng/mL and 29.9 ng/mL | Concentration in plasma, Time (h) 3 [4]: 531 ng/mL and 838 ng/mL and 26.3 ng/mL and 784 ng/mL and 23.0 ng/mL and 34.4 ng/mL and 18.4 ng/mL and 620 ng/mL | Concentration in plasma, Time (h) 4 [4]: 394 ng/mL and 3.99 ng/mL and 18.2 ng/mL and 454 ng/mL and 8.63 ng/mL and 21.1 ng/mL and 13.8 ng/mL and 8.55 ng/mL | Concentration in plasma, Time (h) 6 [4]: 487 ng/mL and 181 ng/mL and 662 ng/mL and 127 ng/mL and 5.32 ng/mL and 438 ng/mL and 4.59 ng/mL and 606 ng/mL | Concentration in plasma, Time (h) 8 [4]: 662 ng/mL and 0.812 ng/mL and 246 ng/mL and 1.32 ng/mL and 367 ng/mL and 154 ng/mL and 225 ng/mL and 967 ng/mL | T1/2 [4]: 8.67 h and 3.24 h and 367 h | Tlast [4]: 24.0 h (3×) and 8.0 h | AUClast (rats, acute oral dosing of 10 mg/kg): 200+-62 h ng/ml | Reduction in time scrutinizing in % ± SEM at 24 h (mice): 36 ± 6% | α7-nAChR activity Efficacy compared to epibatidine (100%) (α7-nAChR): 75% | Brain (pmoles/g)±SD) ([1]; 0.25 hour): 4631 ± 1717 pmol/g | Plasma (pmoles/ml±SD) ([1]; 0.25 hour): 573 ± 234 pmol/mL | Brain (pmoles/g)±SD) ([1]; 0.5 hour): 11430 ± 3441 pmol/g | Plasma (pmoles/ml±SD) ([1]; 0.5 hour): 559 ± 143 pmol/mL | Brain (pmoles/g)±SD) ([1]; 1 hour): 14948 ± 4716 pmol/g | Plasma (pmoles/ml±SD) ([1]; 1 hour): 322 ± 135 pmol/mL | Brain (pmoles/g)±SD) ([1]; 4 hour): 1272 ± 715 pmol/g | Plasma (pmoles/ml±SD) ([1]; 4 hour): 20 ± 16 pmol/mL | Brain (pmoles/g)±SD) ([1]; 8 hour): 58 ± 27 pmol/g | time for which brain concentration is beyond (or at least equal) to the compound's EC50 at the a7-nAChR ([1]; acute oral dose of 30 pmol/kg (so in the source), free base form): at least 4 hours | Hygroscopy @ 85%RH ([2]; 85%RH): ∼2 | Initial water content ([2]; Example 7 comparison of salt forms): 0.1 | moisture gain ([2]; at 93% relative humidity (RH)): 2%
